Measured values published in patent publication US20170190671A1, “BIS(ARYL)CATECHOL DERIVATIVES AS HERBICIDES” (E I DU PONT DE NEMOURS AND COMPANY, priority 2014, published 2017).

Assays:
Type in all cases: in vivo
[1] = system: giant foxtail (Setaria faberii); experiment: Test A preemergence; conditions: Setaria faberi, pre-emergence, 240 h, 0 to 100 scale (0 no effect, 100 complete control), read-out: Foxtail, Giant plant response rating
Procedure, shortened: (§1)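 Pre- and postemergence greenhouse screen. Soil: loam + sand. Spray carrier: solvent mixture, non-phytotoxic, with surfactant. Post timing at 1–2 leaves, height 2–10 cm. Readout: visual injury on a 0–100 scale roughly 10 days after application, untreated plants as reference.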

[2] = system: ragweed (common ragweed, Ambrosia elatior); experiment: Test A preemergence; conditions: Ambrosia artemisiifolia, pre-emergence, 240 h, 0 to 100 scale (0 no effect, 100 complete control), read-out: Ragweed plant response rating
Procedure, shortened: as §1

[3] = system: Italian ryegrass (Lolium multiflorum); experiment: Test A preemergence; conditions: Lolium multiflorum, pre-emergence, 240 h, 0 to 100 scale (0 no effect, 100 complete control), read-out: Ryegrass, Italian plant response rating
Procedure, shortened: as §1

[4] = system: kochia (Kochia scoparia); experiment: Test A preemergence; conditions: Bassia scoparia, pre-emergence, 240 h, 0 to 100 scale (0 no effect, 100 complete control), read-out: Kochia plant response rating
Procedure, shortened: as §1

[5] = system: barnyardgrass (Echinochloa crus-galli); experiment: Test A preemergence; conditions: Echinochloa crus-galli, pre-emergence, 240 h
Procedure, shortened: as §1

[6] = system: pigweed (Amaranthus retroflexus); experiment: Test A preemergence; conditions: Amaranthus retroflexus, pre-emergence, 240 h, 0 to 100 scale (0 no effect, 100 complete control), read-out: Pigweed plant response rating
Procedure, shortened: as §1

[7] = system: galium (catchweed bedstraw, Galium aparine); experiment: Test A postemergence; conditions: Galium, post-emergence, 240 h, 0 to 100 scale, read-out: Plant response rating, Galium
Procedure, shortened: as §1

[8] = system: giant foxtail (Setaria faberii); experiment: Test A postemergence; conditions: Setaria faberi, post-emergence, 240 h, 0 to 100 scale, read-out: Plant response rating, Foxtail, Giant
Procedure, shortened: as §1

[9] = system: ragweed (common ragweed, Ambrosia elatior); experiment: Test A postemergence; conditions: Ambrosia artemisiifolia, post-emergence, 240 h, 0 to 100 scale, read-out: Plant response rating, Ragweed
Procedure, shortened: as §1

[10] = system: Italian ryegrass (Lolium multiflorum); experiment: Test A postemergence; conditions: Lolium multiflorum, post-emergence, 240 h, 0 to 100 scale, read-out: Plant response rating, Ryegrass, Italian
Procedure, shortened: as §1

[11] = system: kochia (Kochia scoparia); experiment: Test A postemergence; conditions: Bassia scoparia, post-emergence, 240 h, 0 to 100 scale, read-out: Plant response rating, Kochia
Procedure, shortened: as §1

[12] = system: barnyardgrass (Echinochloa crus-galli); experiment: Test A postemergence; conditions: Echinochloa crus-galli, post-emergence, 240 h, 0 to 100 scale, read-out: Plant response rating, Barnyardgrass
Procedure, shortened: as §1

[13] = system: corn (Zea mays); experiment: Test A postemergence; conditions: Zea mays, post-emergence, 240 h, 0 to 100 scale
Procedure, shortened: as §1

[14] = system: pigweed (Amaranthus retroflexus); experiment: Test A postemergence; conditions: Amaranthus retroflexus, post-emergence, 240 h, 0 to 100 scale, read-out: Plant response rating, Pigweed
Procedure, shortened: as §1

[15] = system: wheat (Triticum aestivum); experiment: Test A postemergence; conditions: Triticum aestivum, post-emergence, 240 h, 0 to 100 scale, read-out: Plant response rating, Wheat
Procedure, shortened: as §1

[16] = system: blackgrass (Alopecurus myosuroides); experiment: Test A postemergence; conditions: Alopecurus myosuroides, post-emergence, 240 h, 0 to 100 scale, read-out: Plant response rating, Blackgrass
Procedure, shortened: as §1

[17] = system: sedge, umbrella (small-flower umbrella sedge, Cyperus difformis); experiment: Test B flooded paddy; conditions: Cyperus difformis, 336 h; 250 g ai/ha, Flood, 13 to 15 days, scale 0 (no effect) to 100 (complete control); read-out: Plant response rating, Sedge, Umbrella
Procedure, shortened: (§2)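 Visual injury ratings against untreated controls, taken 13 to 15 days after compound was added to paddy water standing 3 cm above the soil.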

[18] = system: barnyardgrass (Echinochloa crus-galli); experiment: Test B flooded paddy; conditions: Echinochloa crus-galli, 336 h; 250 g ai/ha, Flood, 13 to 15 days, scale 0 (no effect) to 100 (complete control); read-out: Plant response rating, Barnyardgrass
Procedure, shortened: as §2

[19] = system: rice (Oryza sativa); experiment: Test B flooded paddy; conditions: Oryza sativa, 336 h; 250 g ai/ha, Flood, 13 to 15 days, scale 0 (no effect) to 100 (complete control); read-out: Plant response rating, Rice
Procedure, shortened: as §2

[20] = system: ducksalad (Heteranthera limosa); experiment: Test B flooded paddy; conditions: Heteranthera limosa, 336 h; 250 g ai/ha, Flood, 13 to 15 days, scale 0 (no effect) to 100 (complete control); read-out: Plant response rating, Ducksalad
Procedure, shortened: as §2

N#Cc1cccc(Oc2ncc(Cl)cn2)c1Oc1ccc(Br)cn1 [Compound 15]
40%: pest or weed control at 31 g/ha ([11]; 31 g ai/ha)
70%: pest or weed control at 125 g/ha ([16]; 125 g ai/ha)
80%: pest or weed control at 31 g/ha ([6]; 31 g ai/ha)
10%: pest or weed control at 125 g/ha ([3]; 125 g ai/ha) | pest or weed control at 31 g/ha ([9]; 31 g ai/ha) | pest or weed control at 125 g/ha ([9]; 125 g ai/ha) | Corn plant response rating (crop injury, 0 = no effect, 100 = complete kill) at 31 g/ha ([13]; 31 g ai/ha) | Corn plant response rating (crop injury, 0 = no effect, 100 = complete kill) at 125 g/ha ([13]; 125 g ai/ha) | plant injury at 125 g/ha ([15]; 125 g ai/ha)
60%: pest or weed control at 31 g/ha ([1]; 31 g ai/ha) | pest or weed control at 125 g/ha ([5]; 125 g ai/ha, 0 to 100 scale, read-out: Plant response rating, Barnyardgrass)
0%: pest or weed control at 31 g/ha ([2]; 31 g ai/ha) | pest or weed control at 125 g/ha ([2]; 125 g ai/ha) | pest or weed control at 31 g/ha ([3]; 31 g ai/ha) | pest or weed control at 31 g/ha ([5]; 31 g ai/ha, 0 to 100 scale (0 no effect, 100 complete control), read-out: Barnyardgrass plant response rating) | pest or weed control at 31 g/ha ([10]; 31 g ai/ha) | pest or weed control at 31 g/ha ([12]; 31 g ai/ha) | plant injury at 31 g/ha ([15]; 31 g ai/ha) | pest or weed control at 31 g/ha ([16]; 31 g ai/ha) | pest or weed control at 250 g/ha [18] | plant injury at 250 g/ha [19]
75%: pest or weed control at 250 g/ha [20]
90%: pest or weed control at 31 g/ha ([4]; 31 g ai/ha) | pest or weed control at 125 g/ha ([7]; 125 g ai/ha) | pest or weed control at 125 g/ha ([8]; 125 g ai/ha) | pest or weed control at 125 g/ha ([11]; 125 g ai/ha) | pest or weed control at 250 g/ha [17]
20%: pest or weed control at 31 g/ha ([8]; 31 g ai/ha) | pest or weed control at 125 g/ha ([12]; 125 g ai/ha)
100%: pest or weed control at 125 g/ha ([1]; 125 g ai/ha) | pest or weed control at 125 g/ha ([4]; 125 g ai/ha) | pest or weed control at 125 g/ha ([6]; 125 g ai/ha) | pest or weed control at 31 g/ha ([14]; 31 g ai/ha) | pest or weed control at 125 g/ha ([14]; 125 g ai/ha)
50%: pest or weed control at 31 g/ha ([7]; 31 g ai/ha) | pest or weed control at 125 g/ha ([10]; 125 g ai/ha)
